Experimental data published in patent publication US20200325239A1, “Modulation of Aminopeptidase N/CD13 and Rheumatoid Arthritis” (THE REGENTS OF THE UNIVERSITY OF MICHIGAN, priority 2016, published 2020).

Experiments:
Assay type in all cases: cell-based, human
CD13 mRNA = assay: Regulation of CD13 mRNA in RA FLS by cytokines (qRT-PCR); conditions: time course 0 to 72 hours; for CD13 mRNA in RA FLS, ratio to untreated FLS (in words): IFNγ 1000 U/ml, TNFα 10 ng/ml, IL-17 10 ng/ml
Method: FIG. 4. […] FLS were stimulated over a time course of 0-72 hours with IFNγ (1000 U/ml), TNFα (10 ng/ml), or IL-17 (10 ng/ml). Cells were harvested and processed for either mRNA (A), surface expression (B), total cell lysate CD13 (C), or total CD13 in supernatant (D). mRNA was measured by qRT-PCR. CD13 was measured on the surface with anti-CD13 (1D7) and flow cytometry. Cell lysate and supernatant CD13 concentrations were measured by CD13 ELISA. Gating was done to isolate the major cell population and exclude debris and dead cells. Data is expressed as a ratio to unstimulated FLS at the same time point in either ΔΔCt normalized to GAPD (mRNA), mean fluorescent intensity corrected for background florescence with MsIg staining (surface), or CD13 concentration in lysate or supernatant. A n=3 B-D n=1 *p≤0.05.
All procedures involving specimens obtained from human subjects were performed under a protocol approved by the University of Michigan Institutional Review Board. Fibroblast-like synoviocytes (FLS) were cultured from human synovial tissue obtained at arthroplasty or synovectomy from RA joints by digestion with 1% collagenase and separation through a […] (16). FLS were uniformly positive for the FLS marker Cadherin-11. The diagnosis of RA required at least four of the seven 1987 American College of Rheumatology criteria (17). FLS were maintained in Connaught Medical Research Laboratory ([…]) medium (20% fetal bovine serum (FBS), 2 mM L-glutamine, and 1% penicillin/streptomycin), and were used between passages 4 and 10. To avoid the confounding effect of serum CD13, cultures were moved to serum-free Dulbecco's Modified Eagle's medium/F-12 with Peprogrow serum replacement (Peprotech, Rocky Hill, N.J.) before harvesting. Some cultures were treated with protease inhibitors for 48 hours in serum-free medium: pepstatin A (Sigma-Aldrich, St. Louis, Mo.), aprotinin (Sigma-Aldrich, St. Louis, Mo.), leupeptin (Sigma-Aldrich, St. Louis, Mo.), GM6001 InSolution (EMD Millipore, Darmstadt, Germany), or E-64 (Thermo Scientific, Waltham, Mass.). Other cultures were treated with cytokines: recombinant human interferon-γ (rhIFNγ, […]), recombinant human tumor necrosis factor-α (rhTNFα, 10 ng/ml), or recombinant human interleukin-17 (rhIL-17,10 ng/ml) (Peprotech, Rocky Hill, N.J.) for 0, 0.5, 1, 2, 6, 8, 12, 24, 48, or 72 hours in serum-free medium.
mRNA was isolated from FLS (3 wells of a 6-well plate) using the RNAeasy Kit and Qiacube (Qiagen, Venlo, Netherlands). cDNA was prepared using a High Capacity cDNA Kit (Life Technologies, Carlsbad, Calif.). Quantitative reverse transcription polymerase chain reaction (qRT-PCR) was done using TaqMan Gene Expression Assays on a 7500 Real Time PCR System (Life Technologies, Carlsbad, Calif.).
CD13 is present at much higher levels in RA synovial fluid compared to OA. Cultured RA and OA FLS, however, expressed similar amounts of CD13 (10). One possible explanation for this observation is that the pro-inflammatory cytokines in the RA joint could contribute to upregulation of CD13 production by FLS. Cultured RA FLS were treated with IFNγ, TNFα, or IL-17 over a time course from 0 to 72 hours. […] Data shown are a ratio of cytokine-treated FLS CD13 mRNA to untreated FLS CD13 mRNA at the same time point.

RA FLS [1] = assay: CD13 shedding from FLS cultures with protease inhibitors (CD13 ELISA of supernatant and cell lysate); conditions: 48 hours
Method: Fibroblast-like synoviocytes (FLS) were cultured from human synovial tissue obtained at arthroplasty or synovectomy from RA joints by digestion with 1% collagenase and separation through a 7004 cell strainer (16). […] FLS were maintained in Connaught Medical Research Laboratory (CARL) medium (20% fetal bovine serum (FBS), 2 mM L-glutamine, and 1% penicillin/streptomycin), and were used between passages 4 and 10. To avoid the confounding effect of serum CD13, cultures were moved to serum-free Dulbecco's Modified Eagle's medium/F-12 with Peprogrow serum replacement (Peprotech, Rocky Hill, N.J.) before harvesting. Some cultures were treated with protease inhibitors for 48 hours in serum-free medium: pepstatin A (Sigma-Aldrich, St. Louis, Mo.), aprotinin (Sigma-Aldrich, St. Louis, Mo.), leupeptin (Sigma-Aldrich, St. Louis, Mo.), GM6001 InSolution (EMD Millipore, Darmstadt, Germany), or E-64 (Thermo Scientific, Waltham, Mass.).
Cells were lysed in cell lysis buffer (10% NP-40, 10% PMSF, 1% Iodoacetamide, and 0.1% E-64 in TSA) for one hour on ice and spun to remove debris. FLS culture supernatants were concentrated by centrifugation through an Amicon Ultracel 30K filter (EMD Millipore, Darmstadt, Germany).
High-binding ELISA plates were coated with the anti-CD13 monoclonal antibody WM15 (Biolegend, San Diego, Calif.) in 0.1M carbonate buffer pH 9.5 overnight, and then blocked with 1× Animal Free Block (Vector Laboratories, Burlingame, Calif.) overnight. Samples were then applied to the plates either whole or diluted in block with 10 mM EDTA. A standard curve was prepared using recombinant human CD13 (R&D Systems, Minneapolis, Minn.) in block with 10 mM EDTA. 1D7 (i.e., 591.1D7.34, University of Michigan Hybridoma Core), an anti-CD13 monoclonal antibody that was recently described (10), was biotinylated (Biotin-XX Microscale Protein Labeling Kit, Life Technologies, Carlsbad, Calif.) and applied overnight (19). Streptavidin-HRP (Biolegend, San Diego, Calif.) was then added. Between steps, plates were washed with PBS plus 0.05% Tween. The plates were visualized with TMB substrate (BD Biosciences, San Jose, Calif.), stopped with 2M H2SO4, and analyzed on a colorimetric plate reader.
To test this mechanism, various protease inhibitors were added to FLS cultures, including: pepstatin A (aspartic), aprotinin (serine), leupeptin (serine/cysteine), GM6001 (metalloproteinase), and E-64 (cysteine). […] All inhibitors were used at established working concentrations.

RA FLS [2] = assay: ELISA for the secretion of CD13 from RA FLS incubated with TIMPs; conditions: 0.6 μg/ml, 48 hours, FLS from 3 RA patients
Method: To determine the role of tissue inhibitors of metalloproteinases (TIMPs) in the secretion of CD13, RA FLS (10 aliquots of 10^5, or 10^6, cells) were plated in 6-well plates in RPMI with 10% FBS. When RA FLS became 85% confluent, media was switched to RPMI containing 0.1% FBS. RA FLS were incubated with TIMP-1, TIMP-2 or both for 48 hours. ELISA was performed to determine the levels of soluble CD13 in the conditioned media. Conditioned media (100 μl/well) was added to 96-well plates (Thermo Scientific, USA) for 2 hours at room temperature. After blocking, anti-CD13 antibody, WM15, (10 μg/ml, BioLegend) was added for 2 hours at 37° C. Anti-mouse IgG HRP-linked antibody (1:1000) was added for 1 hour. After adding the TMB substrate solution (BD Biosciences) and stop solution (2N H2SO4), the optical density (OD) was measured at 450 nm by a microplate reader (BIO-TEK, USA). We used FLS from three different RA patients. Both inhibitors were used at 0.6 μg/ml. These concentrations are recommended by the manufacture to inhibit matrix metalloproteinases (MMPs).

RA FLS [3] = assay: FLS growth assay (Essen IncuCyte, percent confluence); conditions: antibodies 25 or 50 ng/ml, actinonin 10 μM, bestatin 50 μM, primarily between 24 hours and 120 hours
Method: (§1) FIG. 5. […] FLS were seeded on 96-well plates overnight. An Essen Incucyte system was used for both growth (A) and migration (B) assays. Growth was calculated as the difference in percent confluence from time 0. Migration was measured in a scratch-wound assay using relative wound density. All data are expressed as a ratio to untreated FLS of the same cell line. mean±SEM n≥4 (*p≤0.05).
(§2) RA FLS were seeded on Essen Image Lock 96-well plates (Essen Bioscience, Ann Arbor, Mich.) overnight at either 3,000 cells/well for growth or 30,000 cells/well for migration. For growth, the 20% FBS CMRL media was removed and cells were washed 1× with PBS. 100 μl of medium alone (control) or medium containing anti-CD3 (25 or 50 ng/ml, OKT3, used as a non-reactive isotype control antibody in this experiment), anti-CD13 1D7 or WM15 (Biolegend, San Diego, Calif.) (25 or 50 ng/ml), or CD13 chemical inhibitors actinonin (Sigma-Aldrich, St. Louis, Mo.) or bestatin (Sigma-Aldrich, St. Louis, Mo.) (10 μM and 50 μM, respectively) was added to the wells. Images and confluence data were collected using an Essen IncuCyte (Essen Bioscience, Ann Arbor, Mich.). For the scratch-wound migration assay, wounds were made via the Essen scratch-wound tool in the seeded 96-well plate. Plates were then washed 2× with PBS and medium was added similar to the growth plates. Data were collected and the confluence or relative wound density calculated by the Essen IncuCyte.

RA FLS [4] = assay: FLS scratch-wound migration assay (relative wound density); conditions: antibodies 25 or 50 ng/ml; actinonin 10 μM, bestatin 50 μM; primarily from 36 hours to 72 hours
Method: as §1
as §2, with “Plates were then washed 2× with PBS and medium was added similar to the growth plates.” left out

FLS = assay: CD13 release and cellular CD13 after siRNA knockdown with or without GM6001 (CD13 ELISA); conditions: 25 μM GM6001, 48 hours
Method: FLS were grown to confluence, then transfected with siRNA using an Amaxa nucleofector kit. Cells were grown to 75% confluence, then switched to serum-free growth media (Peprogrow) supplemented with 1 ng/ml IL-1 and 10 ng/ml TNFα for 48 hours with or without 25 μM GM6001.
High-binding ELISA plates were coated with the anti-CD13 monoclonal antibody WM15 (Biolegend, San Diego, Calif.) in 0.1M carbonate buffer pH 9.5 overnight, and then blocked with 1× Animal Free Block (Vector Laboratories, Burlingame, Calif.) overnight. Samples were then applied to the plates either whole or diluted in block with 10 mM EDTA. A standard curve was prepared using recombinant human CD13 (R&D Systems, Minneapolis, Minn.) in block with 10 mM EDTA. […] The plates were visualized with TMB substrate (BD Biosciences, San Jose, Calif.), stopped with 2M H2SO4, and analyzed on a colorimetric plate reader.
FLS were transfected by electroporation using an Amaxa Nucleofector and the nucleofector kit for dermal fibroblasts (NHDF, Lonza, Basel, Switzerland). […] Transfection of GFP control plasmid was measured by fluorescent microscopy (EVOSfl, AMG, Mill Creek, Wash.) and flow cytometry (BD Biosciences FACSCalibur, San Jose, Calif.). Knockdown efficiency was measured by qRT-PCR of MMP14 mRNA at the time of harvest for CD13 measurements. […]

recombinant human interferon-γ [IFNγ]
CD13 mRNA in RA FLS, ratio to untreated FLS (in words) (CD13 mRNA): upregulated
time of peak CD13 mRNA expression (CD13 mRNA): around 48 hours

recombinant human tumor necrosis factor-α [TNFα]
CD13 mRNA in RA FLS, ratio to untreated FLS (in words) (CD13 mRNA): upregulated
time of peak CD13 mRNA expression (CD13 mRNA): around 48 hours

CC(=O)N[C@@H](CC(C)C)C(=O)N[C@@H](CC(C)C)C(=O)N[C@H](C=O)CCCNC(=N)N [Leupeptin, leupeptin]
increase in CD13 released (RA FLS [1]; FLS cultures, serum-free media, Leupeptin 10 μM, supernatant): 48.40±14.29%

tissue inhibitor of metalloproteinase 2 [TIMP-2]
CD13 secretion in conditioned media (OD, ELISA) (RA FLS [2]): significant decrease

CCCCC[C@H](CC(=O)NO)C(=O)N[C@H](C(=O)N1CCC[C@H]1CO)C(C)C [actinonin]
RA FLS cell growth (change in confluence, ratio to untreated FLS) (RA FLS [3]): strongest inhibitor of cell proliferation
RA FLS cell growth (change in confluence, ratio to untreated FLS) (RA FLS [3]; listed as Actinonin): significant slowing of cell growth
RA FLS migration in wound healing assay (relative wound density, ratio to untreated) (RA FLS [4]): significant decrease

CC(C)C[C@H](NC(=O)[C@@H](O)[C@H](N)Cc1ccccc1)C(=O)O [Bestatin, bestatin]
RA FLS cell growth (change in confluence, ratio to untreated FLS) (RA FLS [3]): significant slowing of cell growth
RA FLS migration in wound healing assay (relative wound density, ratio to untreated) (RA FLS [4]): not found to inhibit FLS migration

recombinant human interleukin-17 [IL-17]
CD13 mRNA in RA FLS, ratio to untreated FLS (in words) (CD13 mRNA): upregulated
time of peak CD13 mRNA expression (CD13 mRNA): around 48 hours

tissue inhibitor of metalloproteinase 1 [TIMP-1]
CD13 secretion in conditioned media (OD, ELISA) (RA FLS [2]): decrease was not observed

aprotinin
increase in CD13 expression in FLS cell lysates (RA FLS [1]; Aprotinin 100 nM): 22.17±6.18%

CNC(=O)[C@H](Cc1c[nH]c2ccccc12)NC(=O)[C@@H](CC(=O)NO)CC(C)C [GM6001]
CD13 in FLS cell lysates (change, in words) (RA FLS [1]; FLS cultures, serum-free media with protease inhibitor): No significant difference
reduction of CD13 protein found in the supernatant (RA FLS [1]; FLS cultures, serum-free media, GM6001 25 μM, CD13 ELISA): 93.62±4.78%
block of CD13 release from FLS (in words) (RA FLS [1]; protease inhibitors at established working concentrations): found to block CD13 release
CD13 in lysates of GM6001-treated cells (FLS): significantly increased
release of CD13 into the culture supernatant (in words) (FLS; serum-free media with 1 ng/ml IL-1 and 10 ng/ml TNFα): prevented the release of CD13
